Data set [1] in a line: Quantum yield measurement of singlet oxygen (DPBF absorbance decay under light irradiation). The class given is physicochemical. Conditions: singlet oxygen quantum yield relative to tetraphenylporphyrin; DMSO, 27° C., 6.5×10^−7 M fullerene derivative, DPBF absorbance at 418 nm. The procedure: A DMSO solution containing 5.5×10^−5 M of 1,3-diphenylisobenzofuran (DPBF) was prepared, maintaining the water temperature in a waterbath at 27° C. 3 mL of the DMSO solution was poured into a quartz cell and a DMSO solution containing 1.5×10^−5 M of fullerene derivatives was added so that the concentration of the resulting solution is set to 6.5×10^−7 M. Subsequently, oxygen was bubbled through the solution for one minute or more. The cell was set in position within the waterbath, stirred using a multistirrer and irradiated with light every ten seconds to measure the absorbance of the DPBF at 418 nm. Natural logarithm of the absorbance thus measured was plotted against time of light irradiation to find the gradient. Thus, a relative scale with respect to the quantum yield of tetraphenylporphyrin (φ^1O2) was calculated.

The subject of another data set is HeLa cells. Briefly: Phototoxicity test: viability of HeLa cells by MTT assay, without and with light irradiation. The class given is cell-based. The protocol: The cytotoxicity of (Mal-(CH2)2—N)C60 (hereafter, referred to as Compound A) obtained in Example 12 was evaluated by the viability of HeLa cells using an MTT assay (Carmichal, J., W. G. DeGraff, A. F.Gazdar, J. D. Minna and J. B. Mitchell, Cancer Res., 1987, 47, 936-942). HeLa cells (5×10^3 cells/well) were incubated in a Dulbecco's modified Eagle's medium (DMEM) containing 10% fetal bovine serum (FBS) on a 96-well plate in 5% CO2 at 37° C. for 24 hours. After washing with phosphate buffered saline (PBS), 100 μl of (Mal-(CH2)2—N) C60 (DMEM) (−) solution (25 μM) as a fullerene derivative of the present invention was added to the cells, which were incubated for two hours. The cells were washed with PBS, replaced with 100 μl of DMEM(+) and theie viability was measured using the MTT assay. The viability was determined by measuring the absorbance at 570 nm (OD570). […] The ratio was calculated by the following formula: Cell survival ratio (%)=(OD 570 in the presence of Compound A/OD 570 in the absence of Compound A)×100. A cell survival ratio of 100% means the absence of cytotoxicity.
HeLa cells (5×10^3 cells/well) were treated in the same the manner as in the above. Compound A was added to the cells and the resulting cell was irradiated with a 500 W halogen lamp for 8 minutes. After 24 hours' incubation, the supernatant was removed and formazan was dissolved in 100 μl of DMSO. Thereafter, the viability was determined by measuring the absorbance at 570 nm (OD570). […] The ratio was calculated by the following formula: Cell survival ratio (%)=(OD 570 in the presence of Compound A with irradiation/OD 570 in the absence of Compound A with irradiation)×100.
Evaluations were made in the same manner as in Test Example 2 except that each of (Mal-(CH2)2—N)C60 (Compound A) obtained in Example 12 and (D-Xyl-(CH2)2—N)C60(hereafter, referred to as Compound B) obtained in Example 14 was used in amounts 1, 5, 10, 25 and […]. The obtained results of the cytotoxicities of Compounds A and B are shown in FIGS. 2 and 3, respectively.
(Tetrazolium assays rely on reduction of a dye to a coloured formazan, in cell work by metabolically active cells.)

Regarding `OCC1OC(OCCn2c3c4c5c6c7c8c9c%10c%11c%12c%13c%10c%10c8c8c%14c%10c%10c%13c%13c%15c%12c%12c%16c%11c%11c9c7c7c9c%11c%16c%11c%16c%12c%15c%12c%15c%13c%10c%10c%14c(c4c86)c4c%10c%15c6c%12c%16c8c%11c9c(c75)c3c8c6c42)C(O)C(O)C1O` [(D-Gal-(CH2)2—N)C60, N-[2-(β-D-galactopyranosyloxy)ethyl][5,6]-azafulleroid], in data set [1], the “Relative scale for φ^1O2” value amounted to 0.7.
On to “N,Nα-bis[2-(2,3,4-tri-O-acetyl-β-D-xylopyranosyloxy)ethyl] [5,6]-diazafulleroid [(D-AcXyl-(CH2)2—N)2C60]”, for which the “Relative scale for φ^1O2” value in data set [1] is reported as 0.3.
Still for that read-out and setting: then “N,N′-bis[2-(β-D-xylopyranosyloxy)ethyl] [5,6]-diazafulleroid [(D-Xyl-(CH2)2—N)2C60]”, with 0.3; and “N, N′-bis[2-(2,3,6,8,9,13-hepta-O-acetyl-β-(α-D-glucopyranosyl (1-4)-D-glucopyranosyloxy)ethyl) [5,6]-diazafulleroid [(AcMal-(CH2)2—N)2C60]”, with 0.6.
On to “N, N′-bis[2-(2,3,4,6-tetra-O-acetyl-β-D-galactopyranosyloxy)ethyl] [5,6]-diazafulleroid [(D-AcGal-(CH2)2—N)2C60]”, for which the “Relative scale for φ^1O2” value in data set [1] was 0.5.
With “N-[2-(2,3,4,6-tetra-O-acetyl-β-D-glucopyranosyloxy)ethyl][5,6]-azafulleroid [(D-AcGlc-(CH2)2—N)C60]”, the “Relative scale for φ^1O2” value in data set [1] is 0.6.
Regarding “N,N′-bis[2-(β-D-galactopyranosyloxy)ethyl] [5,6]-diazafulleroid [(D-Gal-(CH2)2—N)2C60]”, the “Relative scale for φ^1O2” value in data set [1] was 0.7.
On to “N-[2-(β-D-glucopyranosyloxy)ethyl] [5,6]-azafulleroid [(D-Glc-(CH2)2—N)C60]”, for which the “Relative scale for φ^1O2” value in data set [1] turned out to be 0.6.
As to “N, Nα-bis[2-(2,3,4,6-tetra-O-acetyl-β-D-glucopyranosyloxy)ethyl] [5,6]-diazafulleroid [(D-AcGlc-(CH2)2—N)2C60]”, the “Relative scale for φ^1O2” value in data set [1] was 0.5.
As to `OC1COC(OCCn2c3c4c5c6c7c8c9c%10c%11c%12c%13c%10c%10c8c8c%14c%10c%10c%13c%13c%15c%12c%12c%16c%11c%11c9c7c7c9c%11c%16c%11c%16c%12c%15c%12c%15c%13c%10c%10c%14c(c4c86)c4c%10c%15c6c%12c%16c8c%11c9c(c75)c3c8c6c42)C(O)C1O` [(D-Xyl-(CH2)2—N)C60, N-[2-(β-D-xylopyranosyloxy)ethyl][5,6]-azafulleroid], the “Relative scale for φ^1O2” value in data set [1] is reported as 0.3.
For “N-[2-(2,3,6,8,9,13-hepta-O-acetyl-β-(α-D-glucopyranosyl (1-4)-D-glucopyranosyloxy)ethyl) [5,6]-azafulleroid [(AcMal-(CH2)2—N)C60]”, the “Relative scale for φ^1O2” value in data set [1] was found to be 0.7.
Take “N, N′-bis [2-(2,3,4,6-tetra-O-acetyl-α-D-mannopyranosyloxy)ethyl] [5,6]-diazafulleroid [(D-AcMan-(CH2)2—N)2C60]”: the “Relative scale for φ^1O2” value in data set [1] amounted to 0.7.
Take “N, N′-bis[2-(β-D-glucopyranosyloxy)ethyl][5,6]-diazafulleroid [(D-Glc-(CH2)2—N)2C60]”: the “Relative scale for φ^1O2” value in data set [1] is recorded as 0.6.
On the same count and under the same terms, then “N-[2-(α-D-mannopyranosyloxy)ethyl] [5,6]-azafulleroid [(D-Man-(CH2—N)C60]”, with 0.5.
On to “N-[2-(β-(α-D-glucopyranosyl(1-4)-D-glucopyranosyloxy)ethyl) [5,6]-azafulleroid [(Mal-(CH2)2—N)C60]”, for which the “Relative scale for φ^1O2” value in data set [1] was determined as 0.7. Also, the “toxicity, share of the cells (photocytotoxicity)” value with HeLa cells (10 μM, light irradiation as in Test Example 2, FIG. 2) is “about 50%”. In the data set with HeLa cells (25 μM, 500 W halogen lamp for 8 minutes, 24 hours' incubation, MTT OD570, FIG. 1), the “cytotoxicity (cell survival ratio) with light irradiation” value is given as “cytotoxicity is observed”. Further, the “cytotoxicity (cell survival ratio) without light irradiation” value in the data set with HeLa cells (25 μM, two hours incubation, no light irradiation, MTT OD570, FIG. 1) is on record as “cytotoxicity is not observed”.
As to “N,N′-bis[2-(β-(α-D-glucopyranosyl(1-4)-D-glucopyranosyloxy)ethyl) [5,6]-diazafulleroid [(Mal-(CH2)2—N)2C60]”, the “Relative scale for φ^1O2” value in data set [1] is recorded as 0.8.
The same measure, in the same setting: then “N-[2-(2,3,4-tri-O-acetyl-β-D-xylopyranosyloxy)ethyl] [5,6]-azafulleroid [(D-AcXyl-(CH2)2—N)C60]”, with 0.4.
Regarding “N,N′-bis[2-(α-D-mannopyranosyloxy)ethyl] [5,6]-diazafulleroid [(D-Man-(CH2)2—N)2C60]”, the “Relative scale for φ^1O2” value in data set [1] is 0.5.
As to “N-[2-(2,3,4,6-tetra-O-acetyl-β-D-galactopyranosyloxy)ethyl] [5,6]-azafulleroid [(D-AcGal-(CH2)2—N)C60]”, the “Relative scale for φ^1O2” value in data set [1] was 0.7.
Consider “N-[2-(2,3,4,6-tetra-O-acetyl-α-D-mannopyranosyloxy)ethyl] [5,6]-azafulleroid [(D-AcMan-(CH2)2—N)C60]”, for which the “Relative scale for φ^1O2” value in data set [1] was 0.8.

The values above are taken from patent publication US6844429B2, “Fullerene derivative and composition comprising the same” (San-Ei Gen F.F.I., priority 2001, dated 2005).
